Data from patent US20110098283A1, “3-CINNOLINECARBOXAMIDE DERIVATIVES AND THEIR USE FOR TREATING CANCER” (ASTRAZENECA AB, priority 2007, published 2011).

Target: T1, CSF-1R (His-tagged kinase domain, amino acids 568-912) (Homo sapiens, UniProt P07333)
T1 construct: The His-tagged kinase domain of CSF-1R (i.e., amino acids 568-912, GeneBank ID NM_005211); His; made in house; host or cells: baculovirus infected SF+Express insect cells
T1 sequence (P07333 568-912): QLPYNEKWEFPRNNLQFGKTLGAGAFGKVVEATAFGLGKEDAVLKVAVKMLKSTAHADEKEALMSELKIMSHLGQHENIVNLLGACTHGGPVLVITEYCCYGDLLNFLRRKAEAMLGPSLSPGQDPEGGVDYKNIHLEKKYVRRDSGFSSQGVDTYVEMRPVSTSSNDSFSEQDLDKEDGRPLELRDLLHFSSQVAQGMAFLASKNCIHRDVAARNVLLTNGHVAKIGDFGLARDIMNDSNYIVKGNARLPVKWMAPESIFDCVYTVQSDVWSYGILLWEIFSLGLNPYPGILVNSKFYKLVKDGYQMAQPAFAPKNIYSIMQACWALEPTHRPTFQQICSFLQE
Assay: Assay 2: CSF1R in-vitro AlphaScreen Assay
Type: biochemical
Details: phosphorylation of pEY substrate; 0.46 nM CSF-1R, 12 mM ATP in mix
Protocol: Assay 2: CSF1R in-vitro AlphaScreen Assay
Activity of purified CSF-1R was determined in-vitro using an Amplified Luminescent Proximity Homogeneous Assay (ALPHA) (Perkin Elmer, Mass.), which measures phosphorylation of CSF-1R substrate, biotinylated poly-glutamine-tyrosine peptide (pEY-HTRF CisBio 61GT0BLD), as described below. The His-tagged kinase domain of CSF-1R (i e, amino acids 568-912, GeneBank ID NM_005211) was purified from baculovirus infected SF+Express insect cells (1.4×10^6 cells/ml), French pressed and chromatographed through subsequent QIAgen Ni-NTA, Superflow Mono Q HR 10/10, and Superdex 200 SEC columns.
The phosphorylation of the CSF-1R substrate in the presence and absence of the compound of interest was determined. Briefly, 5 ul of Enzyme/Substrate/adenosine triphosphate (ATP) mix consisting of 0.46 nM of purified CSF-1R, 12 nM pEY substrate, and 12 mM ATP in 1.2× buffer was preincubated with 2 ul of compound for 20 minutes at 25° C. Reactions were initiated with 5 ul of Metal mix consisting of 24 mM MgCl2 in 1.2× buffer and incubated at 25° C. for 90 minutes and reactions were stopped by addition of 5 ul of Detection mix consisting of 20 mM HEPES, 102 mM ethylenediamine tetraacetic acid, 1.65 mg/ml BSA, 136 mM NaCl, 40 ug/ml Streptavidin donor beads (Perkin Elmer, Mass., Catalog #6760002), and 40 ug/ml phosphotyrosine-specific antibody coated acceptor beads (Perkin Elmer, Mass., Catalog #6760620). Plates were incubated at 25° C. for 18 hours in the dark. Phosphorylated substrate was detected by an EnVision plate reader (Perkin Elmer) 680 nm excitation, 520-620 nm emission. Data was graphed and IC50s calculated using Excel Fit (Microsoft).

Row | IC50 [nM] | SMILES
1 | 13 | COc1cc2nnc(C(N)=O)c(Nc3ccc(C)cc3F)c2cc1N1CCn2cnnc2C1 [Example 31, 6-(5,6-Dihydro[1,2,4]triazolo[4,3-a]pyrazin-7(8H)-yl)-4-[(2-fluoro-4-methylphenyl)amino]-7-methoxycinnoline-3-carboxamide]
2 | 8 | COc1cc2nnc(C(N)=O)c(Nc3ccc(C)cc3F)c2cc1N1CCN2C(=NNC2O)C1 (stereo not drawn) [Example 32, 4-[(2-Fluoro-4-methylphenyl)amino]-6-(3-hydroxy-2,5,6,8-tetrahydro[1,2,4]triazolo[4,3-a]pyrazin-7(3H)-yl)-7-methoxycinnoline-3-carboxamide]
3 | 12 | COc1cc2nnc(C(N)=O)c(Nc3ccc(C)cc3F)c2cc1N1CCN2CCCC2C1 (stereo not drawn) [Example 33, 4-[(2-Fluoro-4-methylphenyl)amino]-6-(hexahydropyrrolo[1,2-a]pyrazin-2(1H)-yl)-7-methoxycinnoline-3-carboxamide]
4 | < 3 | COc1cc2nnc(C(N)=O)c(Nc3ccc(C)cc3F)c2cc1N1C[C@@H](C)N[C@@H](C)C1 [Example 36, 6-[(3R,5S)-3,5-Dimethylpiperazin-1-yl]-4-[(2-fluoro-4-methylphenyl)amino]-7-methoxycinnoline-3-carboxamide]
5 | 71 | COc1cc2nnc(C(N)=O)c(Nc3ccc(C)cc3F)c2cc1N1C[C@@H](C)O[C@@H](C)C1 [Example 37, 6-[(2R,6S)-2,6-Dimethylmorpholin-4-yl]-4-[(2-fluoro-4-methylphenyl)amino]-7-methoxycinnoline-3-carboxamide]
6 | 7 | COc1cc2nnc(C(N)=O)c(Nc3ccc(C)cc3F)c2cc1N1CCN(CC(F)(F)F)CC1 [Example 42, 4-[(2-Fluoro-4-methylphenyl)amino]-7-methoxy-6-[4-(2,2,2-trifluoroethyl)piperazin-1-yl]cinnoline-3-carboxamide]
7 | 3 | CCOc1cc2nnc(C(N)=O)c(Nc3ccc(C)cc3F)c2cc1N1CCN(CCO)CC1 [Example 43, 7-Ethoxy-4-[(2-fluoro-4-methylphenyl)amino]-6-[4-(2-hydroxyethyl)piperazin-1-yl]cinnoline-3-carboxamide]
8 | 16 | COc1cc2nnc(C(N)=O)c(Nc3ccc(F)cc3F)c2cc1N1C[C@@H](C)N[C@@H](C)C1 [Example 44, 4-[(2,4-Difluorophenyl)amino]-6-[(3R,5S)-3,5-dimethylpiperazin-1-yl]-7-methoxycinnoline-3-carboxamide]
9 | 6 | COc1cc2nnc(C(N)=O)c(Nc3cccc(Cl)c3F)c2cc1N1C[C@@H](C)N[C@@H](C)C1 [Example 45, 4-[(3-Chloro-2-fluorophenyl)amino]-6-[(3R,5S)-3,5-dimethylpiperazin-1-yl]-7-methoxycinnoline-3-carboxamide]
10 | 33 | COc1cc2nnc(C(N)=O)c(Nc3ccc(C)cc3F)c2cc1C1CCN(S(C)(=O)=O)CC1 [Example 50, 4-[(2-Fluoro-4-methylphenyl)amino]-7-methoxy-6-[1-(methylsulfonyl)piperidin-4-yl]cinnoline-3-carboxamide]

Row | SMILES | IC50 [nM]
11 | COc1cc2nnc(C(N)=O)c(Nc3ccc(C)cc3F)c2cc1C1=CCN(C(C)C)CC1 [Example 29, 4-[(2-Fluoro-4-methylphenyl)amino]-6-(1-isopropyl-1,2,3,6-tetrahydropyridin-4-yl)-7-methoxycinnoline-3-carboxamide] | 7
12 | COc1cc2nnc(C(N)=O)c(Nc3ccc(C)cc3F)c2cc1C1=CCN(CCO)CC1 [Example 34, 4-[(2-Fluoro-4-methylphenyl)amino]-6-[1-(2-hydroxyethyl)-1,2,3,6-tetrahydropyridin-4-yl]-7-methoxycinnoline-3-carboxamide] | 5
